The subject of the assay is L1210 leukemia ip in BDF1 mice, survival T/C. Put plainly: NCI In Vivo Anticancer Drug Screen. Data for tumor model L1210 Leukemia (intraperitoneal) in B6D2F1 (BDF1) mice. The conditions noted are these: endpoint: mean survival time, higher = longer survival. In outline:
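Mice bearing the transplanted tumor received compound or vehicle. Survival of the treated group was divided by that of the vehicle-treated control group to give the ratio.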

Where [1] appears, read: dose: 100.0 mg/kg/injection, schedule: Q01DX009 (ip), vehicle: Klucel (hydroxypropylcellulose) (HPC).
Setting [2] is: dose: 100.0 mg/kg/injection, schedule: Q04DX002 (ip), vehicle: Klucel (hydroxypropylcellulose) (HPC).
Where [3] appears, read: dose: 200.0 mg/kg/injection, schedule: Q01DX009 (ip), vehicle: Klucel (hydroxypropylcellulose) (HPC).
Setting [4] is: dose: 200.0 mg/kg/injection, schedule: Q04DX002 (ip), vehicle: Klucel (hydroxypropylcellulose) (HPC).
Setting [5] is: dose: 400.0 mg/kg/injection, schedule: Q01DX009 (ip), vehicle: Klucel (hydroxypropylcellulose) (HPC).
Where [6] appears, read: dose: 400.0 mg/kg/injection, schedule: Q04DX002 (ip), vehicle: Klucel (hydroxypropylcellulose) (HPC).
[7] abbreviates: dose: 50.0 mg/kg/injection, schedule: Q01DX001 (ip), vehicle: saline.
Where [8] appears, read: dose: 100.0 mg/kg/injection, schedule: Q01DX001 (ip), vehicle: saline.
The mark [9] stands for this setting: dose: 200.0 mg/kg/injection, schedule: Q01DX001 (ip), vehicle: saline.
Where [10] appears, read: dose: 400.0 mg/kg/injection, schedule: Q01DX001 (ip), vehicle: saline.
Where [11] appears, read: dose: 100.0 mg/kg/injection, schedule: Q01DX001 (ip), vehicle: carboxymethylcellulose (CMC).
Setting [12] is: dose: 200.0 mg/kg/injection, schedule: Q01DX001 (ip), vehicle: carboxymethylcellulose (CMC).
[13] abbreviates: dose: 400.0 mg/kg/injection, schedule: Q01DX001 (ip), vehicle: carboxymethylcellulose (CMC).
The mark [14] stands for this setting: dose: 50.0 mg/kg/injection, schedule: Q01DX009 (ip), vehicle: saline.
Setting [15] is: dose: 100.0 mg/kg/injection, schedule: Q01DX009 (ip), vehicle: saline.
[16] abbreviates: dose: 200.0 mg/kg/injection, schedule: Q01DX009 (ip), vehicle: saline.
[17] abbreviates: dose: 100.0 mg/kg/injection, schedule: Q04DX003 (ip), vehicle: saline with Tween-80.
Where [18] appears, read: dose: 200.0 mg/kg/injection, schedule: Q04DX003 (ip), vehicle: saline with Tween-80.
Where [19] appears, read: dose: 100.0 mg/kg/injection, schedule: Q01DX001 (ip), vehicle: Klucel (hydroxypropylcellulose) (HPC).

Inconclusive results and toxic doses are left out.

With `Cc1cc(O)ccc1C1=NCC(C)S1` (centres undefined), the T/C by setting is: (dose: 100.0 mg/kg/injection, schedule: Q01DX005 (ip), vehicle: Klucel (hydroxypropylcellulose) (HPC)) 87 % of control; under setting [1], 98 % of control; under setting [2], 100 % of control; (dose: 200.0 mg/kg/injection, schedule: Q01DX005 (ip), vehicle: Klucel (hydroxypropylcellulose) (HPC)) 101 % of control; under setting [3], 109 % of control; under setting [4], 100 % of control. Also, the T/C runs as follows: (dose: 400.0 mg/kg/injection, schedule: Q01DX005 (ip), vehicle: Klucel (hydroxypropylcellulose) (HPC)) 90 % of control; under setting [5], 95 % of control; under setting [6], 107 % of control.
Turning to `CC(=O)O[C@@H]1CC[C@]2(C)C(=CC[C@@H]3C4CC5O[C@]6(CCC(C)CN6)C(C)C5[C@]4(C)CCC32)C1` (some centres undefined), the T/C under setting [2] was 93 % of control, the T/C under setting [4] is 89 % of control and the T/C under setting [6] was 93 % of control.
Take `OCCc1ccccc1O`: the T/C is 94 % of control under setting [7], 94 % of control under setting [8], 100 % of control under setting [9] and 100 % of control under setting [10].
On to `CC1C(C)C23CCC12C(=O)C(O)C12CCC1(C(O)C3=O)C(C)C2C` (centres undefined), for which the T/C runs as follows: under setting [7], 100 % of control; under setting [8], 109 % of control; under setting [9], 111 % of control.
With `Nc1ccc(Cc2nc3ccccc3[nH]2)cc1`, the T/C by setting is: under setting [8], 102 % of control; under setting [9], 96 % of control; under setting [10], 98 % of control.
For `CC(=O)Oc1ccc(NC(=O)c2ccccc2)c2ccccc12`, the T/C is 110 % of control under setting [11], 100 % of control under setting [12] and 94 % of control under setting [13].
For `CCOc1cc(/C=N/NC(=S)Nc2ccccc2)ccc1O`, the T/C runs as follows: under setting [1], 98 % of control; under setting [3], 105 % of control; under setting [5], 94 % of control.
With `CCOC(=O)C(C)(C)CN(C)CC(C)(C)C=O`, the T/C runs as follows: (dose: 100.0 mg/kg/injection, schedule: Q04DX002 (ip), vehicle: saline) 97 % of control; (dose: 200.0 mg/kg/injection, schedule: Q04DX002 (ip), vehicle: saline) 108 % of control; (dose: 400.0 mg/kg/injection, schedule: Q04DX002 (ip), vehicle: saline) 101 % of control.
Consider `CC(C)(CNC1=NCCO1)NC1=NCCO1`, for which the T/C runs as follows: under setting [14], 105 % of control; under setting [15], 107 % of control; under setting [16], 103 % of control.
As for `O=S1(=O)CCN(c2ccccc2CC(c2c[nH]c3ccccc23)c2c[nH]c3ccccc23)CC1`, the T/C reads like this: under setting [8], 89 % of control; under setting [9], 86 % of control.
Regarding `O=C(O)C1OC(n2cc(I)c(=O)[nH]c2=O)CC1O` (centres undefined), the T/C runs as follows: under setting [8], 107 % of control; under setting [9], 103 % of control; under setting [10], 100 % of control.
Turning to `CCCN1CSC(=S)N(Cc2ccccc2)C1`, the T/C by setting is: under setting [17], 95 % of control; under setting [18], 93 % of control; (dose: 400.0 mg/kg/injection, schedule: Q04DX003 (ip), vehicle: saline with Tween-80) 90 % of control.
On to `c1ccc(CN2CCCCc3ccccc32)cc1`, for which the T/C under setting [17] is 93 % of control and the T/C under setting [18] was 88 % of control.
On to `CN(N=O)C(=O)NCCCCNC(=O)N(C)N=O`, for which the T/C is 107 % of control (dose: 6.25 mg/kg/injection, schedule: Q01DX Z (ip), vehicle: carboxymethylcellulose (CMC)); 112 % of control (dose: 12.5 mg/kg/injection, schedule: Q01DX Z (ip), vehicle: carboxymethylcellulose (CMC)); 111 % of control (dose: 25.0 mg/kg/injection, schedule: Q01DX Z (ip), vehicle: carboxymethylcellulose (CMC)); 108 % of control (dose: 50.0 mg/kg/injection, schedule: Q01DX Z (ip), vehicle: carboxymethylcellulose (CMC)); 163 % of control (dose: 200.0 mg/kg/injection, schedule: Q01DX Z (ip), vehicle: carboxymethylcellulose (CMC)).
In the case of `CC(=O)OC1C=CCc2c(O)c3c(c(O)c21)C(=O)c1ccccc1C3=O` (centres undefined), the T/C is, setting by setting: under setting [15], 91 % of control; (dose: 100.0 mg/kg/injection, schedule: Q04DX003 (ip), vehicle: saline) 90 % of control; under setting [16], 109 % of control; (dose: 200.0 mg/kg/injection, schedule: Q04DX003 (ip), vehicle: saline) 88 % of control; (dose: 400.0 mg/kg/injection, schedule: Q01DX009 (ip), vehicle: saline) 103 % of control; (dose: 400.0 mg/kg/injection, schedule: Q04DX003 (ip), vehicle: saline) 91 % of control.
As for `CCOC(=O)C(=[N+]=[N-])C(F)(F)F`, the T/C runs as follows: under setting [14], 102 % of control; under setting [15], 102 % of control; under setting [16], 95 % of control.
Take `O=C(O)c1cccc(I)c1.[Ni]`: the T/C by setting is: (dose: 25.0 mg/kg/injection, schedule: Q04DX002 (ip), vehicle: gum acacia) 100 % of control; (dose: 50.0 mg/kg/injection, schedule: Q04DX002 (ip), vehicle: gum acacia) 94 % of control.
As for `CC(=O)c1cccnc1`, the T/C reads like this: under setting [7], 104 % of control; under setting [8], 91 % of control; under setting [9], 93 % of control.
As to `COc1ccc(OC)c(NC(=O)Oc2ccc(NC(C)=O)cc2)c1`, the T/C was 104 % of control under setting [1], 102 % of control under setting [3] and 96 % of control under setting [5].
With `O=C(Sc1ccccc1)c1ccccc1`, the T/C was 105 % of control (dose: 50.0 mg/kg/injection, schedule: Q01DX001 (ip), vehicle: carboxymethylcellulose (CMC)); 105 % of control under setting [11]; 108 % of control under setting [12]; 100 % of control under setting [13].
On to `S=C1NCc2ccccc2N1`, for which the T/C runs as follows: (dose: 12.5 mg/kg/injection, schedule: Q04DX003 (ip), vehicle: Klucel (hydroxypropylcellulose) (HPC)) 93 % of control; (dose: 25.0 mg/kg/injection, schedule: Q04DX003 (ip), vehicle: Klucel (hydroxypropylcellulose) (HPC)) 95 % of control; (dose: 50.0 mg/kg/injection, schedule: Q04DX003 (ip), vehicle: Klucel (hydroxypropylcellulose) (HPC)) 103 % of control; under setting [19], 102 % of control.
`Cc1ccc(Br)cc1Br`: the T/C is 96 % of control under setting [8], 100 % of control under setting [9] and 94 % of control under setting [10].
Regarding `COC(=O)CCN(c1ccccc1)S(=O)(=O)c1ccc(C)cc1`, the T/C was 91 % of control (dose: 100.0 mg/kg/injection, schedule: Q04DX003 (ip), vehicle: Klucel (hydroxypropylcellulose) (HPC)); 94 % of control (dose: 200.0 mg/kg/injection, schedule: Q04DX003 (ip), vehicle: Klucel (hydroxypropylcellulose) (HPC)); 93 % of control (dose: 400.0 mg/kg/injection, schedule: Q04DX003 (ip), vehicle: Klucel (hydroxypropylcellulose) (HPC)).
`CN(Cc1ccccc1)Cc1cc(CO)ccc1O`: the T/C is 103 % of control under setting [11] and 105 % of control under setting [12].
On to `CN(CCN1CCCCC1)C(=O)C(c1ccccc1)C1CCCCC1` (centres undefined), for which, where the note is “dose: 75.0 mg/kg/injection, schedule: Q01DX001 (ip), vehicle: saline”, the T/C is 98 % of control.
On to `NS(=O)(=O)c1ccc(NC(=O)Nc2cccc(CNC(=O)Cc3ccc(Cl)cc3C(=O)O)c2)cc1`, for which the T/C (dose: 50.0 mg/kg/injection, schedule: Q01DX001 (ip), vehicle: Klucel (hydroxypropylcellulose) (HPC)) is 104 % of control; the T/C under setting [19] is 109 % of control; the T/C (dose: 200.0 mg/kg/injection, schedule: Q01DX001 (ip), vehicle: Klucel (hydroxypropylcellulose) (HPC)) was 90 % of control.
With `CCN(CCCl)CCNc1c2ccccc2nc2c1ccc1ccccc12`, the T/C by setting is: (dose: 1.25 mg/kg/injection, schedule: Q01DX005 (ip), vehicle: saline) 116 % of control; (dose: 2.5 mg/kg/injection, schedule: Q01DX005 (ip), vehicle: saline) 115 % of control; (dose: 5.0 mg/kg/injection, schedule: Q01DX005 (ip), vehicle: saline) 107 % of control.

These data come from PubChem BioAssay AID248 (DTP/NCI, 2004).
